Earlier results, collected in patent publication US20050020546A1, “Pharmaceutical compositions comprising active vitamin D compounds” (Novacea, Inc., priority 2003, published 2005).

Settings: compared with calcitriol

For `C=C1/C(=C\C=C2/CCC[C@]3(C)C([C@H](C)CC#CC(C)(C)O)=CC[C@@H]23)C[C@@H](O)C[C@@H]1O` [Ro23-7553], the Hypercalcemic effect is given as “reduced hypercalcemic effect”.

In the case of `C=C1/C(=C/C=C2\CCC[C@]3(C)C([C@H](C)CC#CC(O)(C(F)(F)F)C(F)(F)F)=CC[C@@H]23)C[C@@H](O)C[C@@H]1O` [Ro24-5531], the Hypercalcemic effect is given as “reduced hypercalcemic effect”.
